“And” between values parts separate entries of the source, which are not always exact repeats. Equal entries are not always repeated. Where two headings read alike, the source gives them in different places.
How the values were obtained:
[1] = target: yeast mitochondrial ATP synthase (yeast SMP) (Saccharomyces cerevisiae, UniProt P00854+P61829); experiment: biochemical; details: for ATP hydrolysis activity, Exp 1-3: SMP data
[2] = target: yeast mitochondrial ATP synthase (Saccharomyces cerevisiae, UniProt P00854+P61829); experiment: biochemical; details: for inhibition at 1 µM: read-out: % inhibition; for activity at 6 µM / inhibition at 6 µM: Bedaquiline 6 μM
luciferase = luciferase (Photinus pyralis, UniProt P08659); format: biochemical
[3] = test system: human mitochondrial ATP synthase; details: reviewer's remark; ref previous reports; read-out: IC50, ATPase activity of human mitochondrial ATP synthase; cited from earlier work
[4] = right-hand regression, fits the SMP data
[5] = 1st exp (1-11-19), Bedaquiline 0.05 μM, frozen yeast mito, 60 min
[6] = 1st exp (1-11-19), Bedaquiline 0.1 μM, frozen yeast mito, 60 min
[7] = 1st exp (1-11-19), Bedaquiline 0.5 μM, frozen yeast mito, 60 min
[8] = 1st exp (1-11-19), Bedaquiline 1 μM, frozen yeast mito, 60 min
[9] = 1st exp (1-11-19), Bedaquiline 1.4 μM, frozen yeast mito, 60 min
[10] = 1st exp (1-11-19), Bedaquiline 2 μM, frozen yeast mito, 60 min
[11] = 1st exp (1-11-19), Bedaquiline 3 μM, frozen yeast mito, 60 min
[12] = 1st exp (1-11-19), Bedaquiline 4 μM, frozen yeast mito, 60 min
[13] = 1st exp (1-11-19), frozen yeast mito, 60 min
[14] = 2nd exp (1-29-19), Bedaquiline 0.005 μM (duplicate), frozen yeast mito, 60 min
[15] = 2nd exp (1-29-19), Bedaquiline 0.05 μM, frozen yeast mito, 60 min
[16] = 2nd exp (1-29-19), Bedaquiline 0.1 μM, frozen yeast mito, 60 min
[17] = 2nd exp (1-29-19), Bedaquiline 0.5 μM, frozen yeast mito, 60 min
[18] = 2nd exp (1-29-19), Bedaquiline 1 μM, frozen yeast mito, 60 min
[19] = 2nd exp (1-29-19), Bedaquiline 1.4 μM, frozen yeast mito, 60 min
[20] = 2nd exp (1-29-19), Bedaquiline 2 μM, frozen yeast mito, 60 min
[21] = 2nd exp (1-29-19), Bedaquiline 4 μM, frozen yeast mito, 60 min
[22] = 2nd exp (1-29-19), frozen yeast mito, 60 min
[23] = 3rd exp (2-1-19), Bedaquiline 0.005 μM, frozen yeast mito, 60 min
[24] = 3rd exp (2-1-19), Bedaquiline 0.05 μM, frozen yeast mito, 60 min
[25] = 3rd exp (2-1-19), Bedaquiline 0.1 μM, frozen yeast mito, 60 min
[26] = 3rd exp (2-1-19), Bedaquiline 0.5 μM, frozen yeast mito, 60 min
[27] = 3rd exp (2-1-19), Bedaquiline 1 μM, frozen yeast mito, 60 min
[28] = 3rd exp (2-1-19), Bedaquiline 1.4 μM, frozen yeast mito, 60 min
[29] = 3rd exp (2-1-19), Bedaquiline 2 μM, frozen yeast mito, 60 min
[30] = 3rd exp (2-1-19), Bedaquiline 4 μM, frozen yeast mito, 60 min
[31] = 3rd exp (2-1-19), frozen yeast mito, 60 min

Chain of luciferase (P08659 whole entry): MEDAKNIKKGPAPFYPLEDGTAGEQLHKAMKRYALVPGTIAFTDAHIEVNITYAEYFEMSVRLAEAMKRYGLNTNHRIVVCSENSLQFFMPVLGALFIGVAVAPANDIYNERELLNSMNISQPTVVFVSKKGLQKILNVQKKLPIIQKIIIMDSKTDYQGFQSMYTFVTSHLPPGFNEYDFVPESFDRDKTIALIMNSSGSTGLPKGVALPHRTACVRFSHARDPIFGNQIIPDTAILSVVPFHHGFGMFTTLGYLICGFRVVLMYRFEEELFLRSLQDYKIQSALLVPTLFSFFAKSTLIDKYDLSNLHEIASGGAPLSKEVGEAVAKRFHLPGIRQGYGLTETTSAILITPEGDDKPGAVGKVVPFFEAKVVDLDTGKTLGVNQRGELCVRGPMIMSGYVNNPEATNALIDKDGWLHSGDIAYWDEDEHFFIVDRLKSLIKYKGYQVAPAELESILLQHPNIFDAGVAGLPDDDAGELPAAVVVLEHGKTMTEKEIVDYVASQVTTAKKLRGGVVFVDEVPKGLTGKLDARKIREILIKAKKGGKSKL

For `COc1nc2ccc(Br)cc2cc1[C@@H](c1ccccc1)[C@@](O)(CCN(C)C)c1cccc2ccccc12` [BDQ, Bedaquiline], the EC50 [1] was 1280 nM, the IC50 ([1]; IC50 ± SEM, ATP hydrolysis, yeast SMP) was 1280 ± 250 nM and the “ATP hydrolysis activity, Exp 1-3” value ([1]; BDQ 0.0372 uM) was 0.9086 and 0.8616 and 0.8497. The “ATP hydrolysis activity, Exp 1-3” value ([1]; BDQ 0.0744 uM) was 0.9524 and 0.7514 and 0.8742, the “ATP hydrolysis activity, Exp 1-3” value ([1]; BDQ 0.3722 uM) was 0.7241 and 0.758 and 0.7412 and the “ATP hydrolysis activity, Exp 1-3” value ([1]; BDQ 0.7445 uM) was 0.71 and 0.6674 and 0.5944. For the same compound, the “ATP hydrolysis activity, Exp 1-3” value ([1]; BDQ 1.489 uM) was 0.489 and 0.4879 and 0.5368, the “ATP hydrolysis activity, Exp 1-3” value ([1]; BDQ 3.7225 uM) was 0.2859 and 0.2741 and 0.3273 and the “ATP hydrolysis activity, Exp 1-3” value ([1]; BDQ 7.4449 uM) was 0.2679 and 0.4735 and 0.3345. The “ATP hydrolysis activity, Exp 1-3” value ([1]; BDQ 18.6123 uM) was 0.1786 and 0.215 and 0.285, the “ATP hydrolysis activity, Exp 1-3” value ([1]; BDQ 37.2245 uM) was 0.1804 and 0.145 and 0.1981 and the “Hillslope, four parameter logistic fit, second regression” value [1, 4] was -1.0668. For the same compound, the “max, four parameter logistic fit, second regression” value [1, 4] was 0.8923, the “min, four parameter logistic fit, second regression” value [1, 4] was 0.1853 and the “Cyanide sensitive ATP synthesis” value [2, 5] was 49.0688 nmol/min/mg. The activity at 0.05 µM [2, 5] was 106%, the inhibition at 0.05 µM [2, 5] was -6.06% and the “Cyanide sensitive ATP synthesis” value [2, 6] was 39.561 nmol/min/mg. The activity at 0.1 µM [2, 6] was 85.5%, the inhibition at 0.1 µM [2, 6] was 14.5% and the “Cyanide sensitive ATP synthesis” value [2, 7] was 35.6774 nmol/min/mg. The activity at 0.5 µM [2, 7] was 77.1%, the inhibition at 0.5 µM [2, 7] was 22.9% and the “Cyanide sensitive ATP synthesis” value [2, 8] was 21.3622 nmol/min/mg. For the same compound, the activity at 1 µM [2, 8] was 46.2%, the inhibition at 1 µM [2, 8] was 53.8% and the “Cyanide sensitive ATP synthesis” value [2, 9] was 15.4854 nmol/min/mg. The activity at 1.4 µM [2, 9] was 33.5%, the inhibition at 1.4 µM [2, 9] was 66.5% and the “Cyanide sensitive ATP synthesis” value [2, 10] was 8.026 nmol/min/mg. The activity at 2 µM [2, 10] was 17.3%, the inhibition at 2 µM [2, 10] was 82.7% and the “Cyanide sensitive ATP synthesis” value [2, 11] was 3.204 nmol/min/mg. The activity at 3 µM [2, 11] was 6.92%, the inhibition at 3 µM [2, 11] was 93.1% and the “Cyanide sensitive ATP synthesis” value [2, 12] was 1.232 nmol/min/mg. The activity at 4 µM [2, 12] was 2.66%, the inhibition at 4 µM [2, 12] was 97.3% and the activity at 6 µM [2, 13] was 1.64%. For the same compound, the inhibition at 6 µM [2, 13] was 98.4%, the “% activity” value [2, 14] was 96.7896% and the “% inhibition” value [2, 14] was -3.9401% and 3.21%. For the same compound, the “Cyanide sensitive ATP synthesis” value [2, 14] was 54.583 nmol/min/mg and 50.828 nmol/min/mg, the activity at 0.005 µM [2, 14] was 104% and the “Cyanide sensitive ATP synthesis” value [2, 15] was 50.1533 nmol/min/mg. The activity at 0.05 µM [2, 15] was 95.5%, the inhibition at 0.05 µM [2, 15] was 4.5% and the “Cyanide sensitive ATP synthesis” value [2, 16] was 50.0836 nmol/min/mg. The activity at 0.1 µM [2, 16] was 95.4%, the inhibition at 0.1 µM [2, 16] was 4.63% and the “Cyanide sensitive ATP synthesis” value [2, 17] was 46.4023 nmol/min/mg. The activity at 0.5 µM [2, 17] was 88.4%, the inhibition at 0.5 µM [2, 17] was 11.6% and the “Cyanide sensitive ATP synthesis” value [2, 18] was 33.1052 nmol/min/mg. For the same compound, the activity at 1 µM [2, 18] was 63%, the inhibition at 1 µM [2, 18] was 37% and the “Cyanide sensitive ATP synthesis” value [2, 19] was 15.7394 nmol/min/mg. For the same compound, the activity at 1.4 µM [2, 19] was 30%, the inhibition at 1.4 µM [2, 19] was 70% and the “Cyanide sensitive ATP synthesis” value [2, 20] was 6.265 nmol/min/mg. The activity at 2 µM [2, 20] was 11.9%, the inhibition at 2 µM [2, 20] was 88.1% and the activity at 4 µM [2, 21] was 1.16%. It also gave an inhibition at 4 µM [2, 21] of 98.8%, an activity at 6 µM [2, 22] of 0.645% and an inhibition at 6 µM [2, 22] of 99.4%. The “Cyanide sensitive ATP synthesis” value [2, 23] was 55.7209 nmol/min/mg, the activity at 0.005 µM [2, 23] was 101% and the inhibition at 0.005 µM [2, 23] was -1.01%. For the same compound, the “Cyanide sensitive ATP synthesis” value [2, 24] was 53.0953 nmol/min/mg, the activity at 0.05 µM [2, 24] was 96.2% and the inhibition at 0.05 µM [2, 24] was 3.75%. The “Cyanide sensitive ATP synthesis” value [2, 25] was 53.6873 nmol/min/mg, the activity at 0.1 µM [2, 25] was 97.3% and the inhibition at 0.1 µM [2, 25] was 2.68%. For the same compound, the “Cyanide sensitive ATP synthesis” value [2, 26] was 38.5022 nmol/min/mg, the activity at 0.5 µM [2, 26] was 69.8% and the inhibition at 0.5 µM [2, 26] was 30.2%. For the same compound, the “Cyanide sensitive ATP synthesis” value [2, 27] was 33.4087 nmol/min/mg, the activity at 1 µM [2, 27] was 60.6% and the inhibition at 1 µM [2, 27] was 39.4%. For the same compound, the “Cyanide sensitive ATP synthesis” value [2, 28] was 18.8899 nmol/min/mg, the activity at 1.4 µM [2, 28] was 34.2% and the inhibition at 1.4 µM [2, 28] was 65.8%. For the same compound, the “Cyanide sensitive ATP synthesis” value [2, 29] was 16.8178 nmol/min/mg, the activity at 2 µM [2, 29] was 30.5% and the inhibition at 2 µM [2, 29] was 69.5%. The “Cyanide sensitive ATP synthesis” value [2, 30] was 2.063 nmol/min/mg, the activity at 4 µM [2, 30] was 3.74% and the inhibition at 4 µM [2, 30] was 96.3%. The activity at 6 µM [2, 31] was 1.81%, the inhibition at 6 µM [2, 31] was 98.2% and the IC50 ([2]; IC50 ± SEM, ATP synthesis, yeast mitochondria) was 1100 nM and ~1100 nM. For the same compound, the “effect on the activity of luciferase” value (luciferase) was “did not affect” and the IC50 [3] was 200000 nM.

Source: paper PMC7438494 (Communications Biology, 2020)
